# Source: US20170239323A1, “ORITAVANCIN FORMULATIONS” (The Medicines Company, priority 2016, published 2017)
# Key:
# [1] = Reconstituted oritavancin/HPCD solution diluted in 0.9% saline: pH and observation for precipitation; assay type: physicochemical; details: for pH: RT
# [2] = Dilution in Hank's Balanced Salt Solution (HBSS, plasma surrogate): pH and visual observations; assay type: physicochemical; details: for time at which oritavancin started to fall out of solution: repeat with material 24 hours after reconstitution
# Protocol: Reconstituting Orbactiv 400 mg (Oritavancin) in 20% w/v aqueous HPCD then diluting in Hank's Balanced Salt Solution (HBSS). 2.641 g of HPCD was dissolved in 13.205 mL of water to make a 20% w/v solution (pH=6.70). Eight (8) mL of the 20% w/v solution was added to a 400 mg vial of Orbactiv for a target oritavancin concentration of 50 mg/mL. […] A 1.5 mL aliquot of 50 mg/mL was removed from the vial and placed in a small glass vial and pH measured. Diluted 2 mL of 50 mg/mL oritavancin solution in 8 mL of HBSS. Visual observations and pH were recorded. (Table 12).
# HBSS was used as a plasma surrogate in this experiment. Oritavancin at either 5 or 10 mg/mL precipitated from solution at 2 hours in HBSS. This experiment was repeated with the same material 24 hours later and observed over shorter time intervals. Diluted […] in a small glass vial to make a 10 mg/mL solution. Diluted […] in a small glass vial to make a 5 mg/mL solution. Solutions were observed and pH was tested every 0.25 hrs. (Table 14, Table 15).
# [3] = 20% w/v HPCD reconstitution diluted to 5 mg/mL in 0.9% saline, rechecked one month later
# [4] = 50% HPCD reconstitution diluted to 5 mg/mL in 0.9% saline, rechecked one month later
# [5] = Table 12: 20% w/v HPCD reconstitution diluted in HBSS: oritavancin 10 mg/mL, HPCD 4% w/v, 0 hr
# [6] = Table 12: 20% w/v HPCD reconstitution diluted in HBSS: oritavancin 10 mg/mL, HPCD 4% w/v, 0.5 hr
# [7] = Table 12: 20% w/v HPCD reconstitution diluted in HBSS: oritavancin 10 mg/mL, HPCD 4% w/v, 1 hr
# [8] = Table 12: 20% w/v HPCD reconstitution diluted in HBSS: oritavancin 10 mg/mL, HPCD 4% w/v, 2 hr
# [9] = Table 14: repeat with 24-hour-old 20% w/v HPCD reconstitution diluted in HBSS: oritavancin 10 mg/mL, HPCD 2% w/v, 0 hr
# [10] = Table 14: repeat with 24-hour-old 20% w/v HPCD reconstitution diluted in HBSS: oritavancin 10 mg/mL, HPCD 2% w/v, 0.25 hr
# [11] = Table 15: 24-hour-old 20% w/v HPCD reconstitution diluted in HBSS: oritavancin 5 mg/mL, HPCD 2% w/v, 0 hr
# [12] = Table 15: 24-hour-old 20% w/v HPCD reconstitution diluted in HBSS: oritavancin 5 mg/mL, HPCD 2% w/v, 0.25 hr
# [13] = Table 15: 24-hour-old 20% w/v HPCD reconstitution diluted in HBSS: oritavancin 5 mg/mL, HPCD 2% w/v, 0.5 hr
# [14] = Table 15: 24-hour-old 20% w/v HPCD reconstitution diluted in HBSS: oritavancin 5 mg/mL, HPCD 2% w/v, 0.75 hr
# [15] = Table 15: 24-hour-old 20% w/v HPCD reconstitution diluted in HBSS: oritavancin 5 mg/mL, HPCD 2% w/v, 1 hr
smiles,measurement,setting,value
CN[C@H](CC(C)C)C(=O)N[C@H]1C(=O)N[C@@H](CC(N)=O)C(=O)N[C@H]2C(=O)N[C@H]3C(=O)N[C@H](C(=O)N[C@H](C(=O)O)c4cc(O)cc(O)c4-c4cc3ccc4O)[C@H](O[C@H]3C[C@](C)(N)[C@@H](O)[C@H](C)O3)c3ccc(c(Cl)c3)Oc3cc2cc(c3O[C@@H]2O[C@H](CO)[C@@H](O)[C@H](O)[C@H]2O[C@H]2C[C@](C)(NCc3ccc(-c4ccc(Cl)cc4)cc3)[C@@H](O)[C@H](C)O2)Oc2ccc(cc2Cl)[C@H]1O [Oritavancin],pH,"[1]; 20% w/v HPCD reconstitution diluted in 0.9% saline: oritavancin 5 mg/mL, HPCD 2% w/v, 0 hr",4.17
same,pH,"[1]; 20% w/v HPCD reconstitution diluted in 0.9% saline: oritavancin 5 mg/mL, HPCD 2% w/v, 0.08 hr",4.17
same,pH,"[1]; 20% w/v HPCD reconstitution diluted in 0.9% saline: oritavancin 5 mg/mL, HPCD 2% w/v, 0.5 hr",4.17
same,pH,"[1]; 20% w/v HPCD reconstitution diluted in 0.9% saline: oritavancin 5 mg/mL, HPCD 2% w/v, 1 hr",4.17
same,pH,"[1]; 20% w/v HPCD reconstitution diluted in 0.9% saline: oritavancin 5 mg/mL, HPCD 2% w/v, 24 hr",4.17
same,pH,"[1]; 20% w/v HPCD reconstitution diluted in 0.9% saline: oritavancin 5 mg/mL, HPCD 2% w/v, 720 hr",4.32
same,appearance / precipitation,"[1]; 20% w/v HPCD reconstitution diluted to 5 mg/mL in 0.9% saline, for 24 hours",remained clear and colorless without any precipitation
same,appearance,[1]; [3],clear and colorless
same,pH change,[1]; [3],increased slightly
same,appearance / precipitation,[1]; 20% w/v HPCD reconstitution diluted to 6 mg/mL in 0.9% saline,remained clear and colorless without any visible precipitation
same,time for which no precipitation was observed,"[1]; 20% w/v HPCD reconstitution pH adjusted (up to 7), diluted to 5 mg/mL in 0.9% saline",at least 12 hours
same,appearance,"[1]; 20% w/v HPCD reconstitution, diluted to 5 mg/mL in 0.9% saline, pH 6.5 and above, for 24 hours",maintained clear and colorless
same,appearance / precipitation,"[1]; 50% HPCD reconstitution diluted to 5 mg/mL in 0.9% saline, for 24 hours",remained clear and colorless without any precipitation
same,appearance,[1]; [4],clear and colorless
same,pH change,[1]; [4],increased slightly
same,pH,"[1]; 50% w/v HPCD reconstitution diluted in 0.9% saline: oritavancin 5 mg/mL, HPCD 5% w/v, 0 hr",4.14
same,pH,"[1]; 50% w/v HPCD reconstitution diluted in 0.9% saline: oritavancin 5 mg/mL, HPCD 5% w/v, 0.08 hr",4.14
same,pH,"[1]; 50% w/v HPCD reconstitution diluted in 0.9% saline: oritavancin 5 mg/mL, HPCD 5% w/v, 0.5 hr",4.14
same,pH,"[1]; 50% w/v HPCD reconstitution diluted in 0.9% saline: oritavancin 5 mg/mL, HPCD 5% w/v, 1 hr",4.14
same,pH,"[1]; 50% w/v HPCD reconstitution diluted in 0.9% saline: oritavancin 5 mg/mL, HPCD 5% w/v, 24 hr",4.15
same,pH,"[1]; 50% w/v HPCD reconstitution diluted in 0.9% saline: oritavancin 5 mg/mL, HPCD 5% w/v, 720 hr",4.26
same,time for which no precipitation was observed,"[1]; 50% w/v HPCD reconstitution pH adjusted (up to 6.3), diluted to 5 mg/mL in 0.9% saline",at least 1 hour
same,time for which no precipitation was observed,"[1]; 50% w/v HPCD reconstitution pH adjusted (up to 7), diluted to 5 mg/mL in 0.9% saline",at least 12 hours
same,appearance,"[1]; 50% w/v HPCD reconstitution pH adjusted, diluted to 5 mg/mL in 0.9% saline, at 24 hours",Some discoloration
same,appearance,[1]; pH 5.7,Some discoloration
same,time for which solution maintains clarity,[1]; pH adjusted to pH 7 in saline using NaOH,at least 12 hours
same,stability in solution,"[1]; reconstituted in 20% or 50% w/v HPCD, diluted into saline at 5 mg/mL",does not fall out of solution for at least one month
same,time at which oritavancin precipitated from solution,[2]; 5 mg/mL in HBSS (20% w/v HPCD reconstitution),2 h
same,time at which oritavancin started to fall out of solution,[2]; 5 mg/mL in HBSS,~1.5 h
same,time at which oritavancin precipitated from solution,[2]; 10 mg/mL in HBSS (20% w/v HPCD reconstitution),2 h
same,time at which oritavancin started to fall out of solution,[2]; 10 mg/mL in HBSS,0.5 h
same,time for which oritavancin remains in solution,[2]; 20% w/v aqueous HPCD reconstitution diluted into HBSS at 5 mg/mL,at least 1 hour
same,Observations,[2]; [5],"Clear, colorless solution"
same,pH,[2]; [5],5.83
same,Observations,[2]; [6],"Clear, colorless solution"
same,pH,[2]; [6],5.86
same,Observations,[2]; [7],"Clear, colorless solution"
same,pH,[2]; [7],5.87
same,Observations,[2]; [8],Flocculent white precipitate
same,pH,[2]; [8],5.92
same,Observations,[2]; [9],"Clear, colorless solution"
same,pH,[2]; [9],6.19
same,Observations,[2]; [10],"Clear, colorless solution"
same,pH,[2]; [10],6.21
same,pH,"[2]; Table 14: repeat with 24-hour-old 20% w/v HPCD reconstitution diluted in HBSS: oritavancin 10 mg/mL, HPCD 2% w/v, 0.5 hr",6.30
same,pH,"[2]; Table 14: repeat with 24-hour-old 20% w/v HPCD reconstitution diluted in HBSS: oritavancin 10 mg/mL, HPCD 2% w/v, 0.75 hr",6.33
same,pH,"[2]; Table 14: repeat with 24-hour-old 20% w/v HPCD reconstitution diluted in HBSS: oritavancin 10 mg/mL, HPCD 2% w/v, 1 hr",6.38
same,Observations,[2]; [11],"Clear, colorless solution"
same,pH,[2]; [11],6.39
same,Observations,[2]; [12],"Clear, colorless solution"
same,pH,[2]; [12],6.47
same,Observations,[2]; [13],"Clear, colorless solution"
same,pH,[2]; [13],6.50
same,Observations,[2]; [14],"Clear, colorless solution"
same,pH,[2]; [14],6.59
same,Observations,[2]; [15],"Clear, colorless solution"
same,pH,[2]; [15],6.61
same,pH,"[2]; Table 15: 24-hour-old 20% w/v HPCD reconstitution diluted in HBSS: oritavancin 5 mg/mL, HPCD 2% w/v, 1.25 hr",6.63
same,pH,"[2]; Table 15: 24-hour-old 20% w/v HPCD reconstitution diluted in HBSS: oritavancin 5 mg/mL, HPCD 2% w/v, 1.5 hr",6.71
same,pH,"[2]; Table 15: 24-hour-old 20% w/v HPCD reconstitution diluted in HBSS: oritavancin 5 mg/mL, HPCD 2% w/v, 1.75 hr",6.76
